Numbers after ± are expanded uncertainties.
Settings: Crystal; DSC

With `[Cl-].[Cs+]` [cesium chloride] as the molecule, how does the Triple point temperature read?
Its Triple point temperature is 918 ± 10 K.

With `[Cl-].[Cl-].[Zn+2]` [zinc chloride] as the molecule, how does the Triple point temperature read?
Its Triple point temperature is 587 ± 10 K.

Reference: the NIST ThermoML archive (doi:10.1016/j.fluid.2019.01.011)
